The assay deals with human RIP1 kinase domain (2-375) (Homo sapiens (Human), UniProt Q13546). Description: biochemical. It counts as biochemical. To be noted: 50 uM ATP. The method in brief:
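50 nM purified kinase domain from baculovirus-infected insect cells, incubated 2 h with compound in 50 mM Hepes pH 7.5, 30 mM MgCl2, 1 mM DTT, 50 uM ATP, 0.002% Brij-35, 0.5% DMSO. ADP formation read by Transcreener FP at 633 nm excitation. Ki^app fitted with the Morrison tight-binding equation.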

Where [1] appears, read: human RIP1 kinase domain (2-375), Transcreener ADP assay, 2 hours incubation, read-out: RIP1 Ki.
The mark [2] stands for this setting: human RIP1 kinase domain (2-375), 2 hours incubation, Transcreener ADP assay, read-out: RIP1 Ki.
[3] abbreviates: tight-binding apparent inhibition constant, human RIP1 kinase domain (2-375) 50 nM, 2 hours, read-out: Ki.
Setting [4] is: Table 1, apparent Ki (Morrison tight-binding fit), 50 nM RIP1 kinase domain, 2 hours incubation, read-out: RIP1 Ki.
The mark [5] stands for this setting: Table 5, apparent Ki (Morrison tight-binding fit), 50 nM RIP1 kinase domain, 2 hours incubation, read-out: Ki.

Values joined by “and” are separate entries in the source; they are usually repeats but may differ in a detail not shown here. Equal entries are not always repeated. Where two headings read alike, the source gives them in different places.

Chain of human RIP1 kinase domain (2-375) (Q13546 2-375): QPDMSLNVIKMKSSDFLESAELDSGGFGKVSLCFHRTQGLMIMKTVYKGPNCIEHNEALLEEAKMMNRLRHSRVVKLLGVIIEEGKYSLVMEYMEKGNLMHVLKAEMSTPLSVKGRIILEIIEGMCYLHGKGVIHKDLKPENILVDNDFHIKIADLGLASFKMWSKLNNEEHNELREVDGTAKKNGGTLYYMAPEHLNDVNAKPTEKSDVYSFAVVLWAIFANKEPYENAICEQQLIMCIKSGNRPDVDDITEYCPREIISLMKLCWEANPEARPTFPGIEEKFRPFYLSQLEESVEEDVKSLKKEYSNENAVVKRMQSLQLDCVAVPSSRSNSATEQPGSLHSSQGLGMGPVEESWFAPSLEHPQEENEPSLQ

Regarding `Cc1nn2c(c1C)N(C)C(=O)[C@@H](NC(=O)c1ncn(Cc3ccccc3)n1)CC2` [Example 274, (S)-1-benzyl-N-(2,3,4-trimethyl-5-oxo-5,6,7,8-tetrahydro-4H-pyrazolo[1,5-a][1,3]diazepin-6-yl)-1H-1,2,4-triazole-3-carboxamide], under setting [1], the Ki is 39.5 nM. Same read-out and setting: the result for `CN1C(=O)[C@@H](NC(=O)c2cc3c(cn2)COC3(C)CC(F)(F)F)COc2ccccc21` (stereo partly drawn) [Example 229, 1-methyl-N—((S)-5-methyl-4-oxo-2,3,4,5-tetrahydrobenzo[b][1,4]oxazepin-3-yl)-1-(2,2,2-trifluoroethyl)-1,3-dihydrofuro[3,4-c]pyridine-6-carboxamide] reads 44.6 nM. Turning to `Cc1cc2n(n1)CC[C@H](NC(=O)c1ncn(Cc3ccc(F)c(F)c3)n1)C(=O)N2C` [Example 220, (S)-1-(3,4-difluorobenzyl)-N-(2,4-dimethyl-5-oxo-5,6,7,8-tetrahydro-4H-pyrazolo[1,5-a][1,3]diazepin-6-yl)-1H-1,2,4-triazole-3-carboxamide], under setting [2], the Ki came to 47.1 nM.

With `Cc1cc2n(n1)CC[C@H](NC(=O)c1ncn(Cc3cc(F)ccc3F)n1)C(=O)N2C` [Example 305, (S)-1-(2,5-difluorobenzyl)-N-(2,4-dimethyl-5-oxo-5,6,7,8-tetrahydro-4H-pyrazolo[1,5-a][1,3]diazepin-6-yl)-1H-1,2,4-triazole-3-carboxamide], under setting [1], the Ki is 15 nM. With `O=C(N[C@H]1CCc2cc(F)cc(F)c2NC1=O)c1nc2n(n1)CC[C@H]2c1ccccc1` (single isomer, unassigned) [Example 628], the Ki under setting [3] worked out at 5 nM. Turning to `CN1C(=O)[C@@H](NC(=O)c2nnc(Cc3ccccc3)[nH]2)CCn2nc(C(F)(F)F)cc21` [Example 80, (S)-5-benzyl-N-(4-methyl-5-oxo-2-(trifluoromethyl)-5,6,7,8-tetrahydro-4H-pyrazolo[1,5-a][1,3]diazepin-6-yl)-4H-1,2,4-triazole-3-carboxamide], the Ki under setting [4] came to 64 nM.

Consider `CN1C(=O)[C@@H](NC(=O)c2ncn(Cc3ccccc3)n2)CCn2nc(CN3CCC(F)(F)C3)cc21` (single isomer, unassigned) [Example 727], for which the Ki under setting [5] came to 59 nM. On to `CN1C(=O)[C@@H](NC(=O)c2ncn3ccc(C(F)(F)F)cc23)COc2ccccc21` [Example 37, N-[(3S)-5-methyl-4-oxo-2,3-dihydro-1,5-benzoxazepin-3-yl]-7-(trifluoromethyl)imidazo[1,5-a]pyridine-1-carboxamide], for which the Ki under setting [4] was determined as 5.08 nM.

Consider `CCC[C@]1(C)OCc2cnc(C(=O)N[C@H]3COc4cc(F)cc(F)c4NC3=O)nc21` [Example 619, (7S)-7-methyl-7-propyl-N-[(3S)-6,8-difluoro-4-oxo-3,5-dihydro-2H-1,5-benzoxazepin-3-yl]-5H-furo[3,4-d]pyrimidine-2-carboxamide], for which the Ki under setting [3] worked out at 180 nM. Turning to `CN1C(=O)[C@@H](NC(=O)c2ncn(Cc3ccc(F)cc3)n2)CCn2nc(C3CC3)cc21` (stereo in doubt) [Example 681, 1-[(4-fluorophenyl)methyl]-N-[rac-(6S)-2-cyclopropyl-4-methyl-5-oxo-7,8-dihydro-6H-pyrazolo[1,5-a][1,3]diazepin-6-yl]-1,2,4-triazole-3-carboxamide], the Ki under setting [3] amounted to 23.7 nM. Consider `CN1C(=O)C(NC(=O)c2ncn(CC3CCOCC3)n2)CCn2nc(C3CC3)cc21` (stereo not drawn) [Example 254, N-(2-cyclopropyl-4-methyl-5-oxo-5,6,7,8-tetrahydro-4H-pyrazolo[1,5-a][1,3]diazepin-6-yl)-1-((tetrahydro-2H-pyran-4-yl)methyl)-1H-1,2,4-triazole-3-carboxamide], for which the Ki under setting [1] turned out to be 2200 nM.

With `CN1C(=O)[C@@H](NC(=O)c2ncn(Cc3ccccc3Cl)n2)CCn2nccc21` [Example 582, 1-[(2-chlorophenyl)methyl]-N-(6S)-4-methyl-5-oxo-7,8-dihydro-6H-pyrazolo[1,5-a][1,3]diazepin-6-yl-1,2,4-triazole-3-carboxamide], the Ki under setting [3] is 7.6 nM and 43 nM. Same read-out and setting: the result for `O=C(N[C@H]1COc2cc(F)cc(F)c2NC1=O)c1nc2n(n1)[C@H](C(F)(F)F)CC2` [Example 348, (5S)—N-[(3S)-6,8-difluoro-4-oxo-3,5-dihydro-2H-1,5-benzoxazepin-3-yl]-5-(trifluoromethyl)-6,7-dihydro-5H-pyrrolo[1,2-b][1,2,4]triazole-2-carboxamide] reads 13.8 nM. Consider `O=C(N[C@H]1COc2cc(F)cc(F)c2NC1=O)c1n[nH]c2c1C[C@H](C(F)(F)F)CC2` (single isomer, unassigned) [Example 87], for which, under setting [2], the Ki was 104 nM. `Cc1cc2n(n1)CC[C@H](NC(=O)c1nc3n(n1)CCC31CCOC1)C(=O)N2C` (stereo partly drawn) [Example 646, N-[(6S)-2,4-dimethyl-5-oxo-7,8-dihydro-6H-pyrazolo[1,5-a][1,3]diazepin-6-yl]spiro[5,6-dihydropyrrolo[1,2-b][1,2,4]triazole-7,3′-tetrahydrofuran]-2-carboxamide]: the Ki under setting [3] is 9300 nM. Take `CN1C(=O)[C@@H](NC(=O)c2cc3c(cn2)CO[C@@]3(C)C(F)(F)F)COc2ccccc21` [Example 744, (1R)-1-methyl-N-[(3S)-5-methyl-4-oxo-2,3-dihydro-1,5-benzoxazepin-3-yl]-1-(trifluoromethyl)-3H-furo[3,4-c]pyridine-6-carboxamide]: the Ki under setting [5] came out at 10 nM. Regarding `CN1C(=O)[C@@H](NC(=O)c2ncn(Cc3ncccc3Cl)n2)CCn2nc(C3CC3)cc21` [Example 658], the Ki under setting [3] came out at 54 nM. `CC1Cc2c(C(=O)N[C@H]3COc4[nH]ncc4NC3=O)n[nH]c2CO1` (stereo partly drawn) [Example 25, 5-methyl-N—((S)-5-oxo-4,5,6,7-tetrahydro-1H-pyrazolo[3,4-b][1,4]oxazepin-6-yl)-1,4,5,7-tetrahydropyrano[3,4-c]pyrazole-3-carboxamide]: under setting [4], the Ki is more than 10000 nM.

Take `Cc1ccc2snc(C(=O)N[C@H]3COc4ccccc4N(C)C3=O)c2c1` [Example 90, (S)-5-methyl-N-(5-methyl-4-oxo-2,3,4,5-tetrahydrobenzo[b][1,4]oxazepin-3-yl)benzo[d]isothiazole-3-carboxamide]: the Ki under setting [2] turned out to be 18.6 nM.

For the compound `CN1C(=O)[C@@H](NC(=O)c2ncn(Cc3ccccc3)n2)CCn2nc(CN3CCOCC3)cc21` [Example 779, (S)-1-benzyl-N-(4-methyl-2-(morpholinomethyl)-5-oxo-5,6,7,8-tetrahydro-4H-pyrazolo[1,5-a][1,3]diazepin-6-yl)-1H-1,2,4-triazole-3-carboxamide], under setting [5], the Ki was 155 nM. Regarding `CN1C(=O)C(NC(=O)c2ncn(Cc3ccccc3)n2)CCn2cncc21` (stereo not drawn) [Example 204, 1-benzyl-N-(1-methyl-2-oxo-2,3,4,5-tetrahydro-1H-imidazo[1,5-a][1,3]diazepin-3-yl)-1H-1,2,4-triazole-3-carboxamide], the Ki under setting [2] was 84.3 nM.

For `CN1C(=O)C(NC(=O)c2nnc(Cc3ccccc3)[nH]2)CCn2nc3c(c21)CS(=O)(=O)C3` (stereo not drawn) [Example 141, 5-benzyl-N-(1-methyl-9,9-dioxido-2-oxo-1,2,3,4,5,10-hexahydro-8H-thieno[3′,4′:3,4]pyrazolo[1,5-a][1,3]diazepin-3-yl)-4H-1,2,4-triazole-3-carboxamide], the Ki under setting [2] was found to be 544 nM.

Consider `CN1C(=O)[C@@H](NC(=O)c2ncn(CC3CCCOC3)n2)CCn2nc(C3CC3)cc21` (stereo partly drawn) [Example 478], for which the Ki under setting [3] came out at 290 nM. Consider `CCn1ccc(-c2cc3n(n2)CCC(NC(=O)c2ncn(Cc4ccccc4)n2)C(=O)N3C)n1` (racemic) [Example 704, 1-benzyl-N-[2-(1-ethylpyrazol-3-yl)-4-methyl-5-oxo-7,8-dihydro-6H-pyrazolo[1,5-a][1,3]diazepin-6-yl]-1,2,4-triazole-3-carboxamide], for which the Ki under setting [5] worked out at 95 nM.

Regarding `CN1C(=O)[C@@H](NC(=O)c2cc3c(cn2)COC32CCCOC2)COc2ccccc21` (stereo partly drawn) [Example 489, N-[(3S)-5-methyl-4-oxo-2,3-dihydro-1,5-benzoxazepin-3-yl]spiro[3H-furo[3,4-c]pyridine-1,3′-tetrahydropyran]-6-carboxamide], the Ki under setting [3] worked out at 94 nM. The same measure, in the same setting: under `Cc1cc2n(n1)CC[C@H](NC(=O)c1nnc(Cc3ccc(F)cc3)[nH]1)C(=O)N2C` [Example 484, 5-[(4-fluorophenyl)methyl]-N-(6S)-2,4-dimethyl-5-oxo-7,8-dihydro-6H-pyrazolo[1,5-a][1,3]diazepin-6-yl-4H-1,2,4-triazole-3-carboxamide] stands 82 nM; under `CN1C(=O)[C@@H](NC(=O)c2ncn(Cc3ccccc3)n2)CC[C@@H]2[C@H]1C2(F)F` (single isomer, unassigned) [Example 364], 450 nM.

Take `CN1C(=O)[C@@H](NC(=O)c2ncn(Cc3ccc(F)c(F)c3)n2)CCn2nc([C@H]3CC3(F)F)cc21` [Example 313, 1-(3,4-difluorobenzyl)-N—((S)-2-((R)-2,2-difluorocyclopropyl)-4-methyl-5-oxo-5,6,7,8-tetrahydro-4H-pyrazolo[1,5-a][1,3]diazepin-6-yl)-1H-1,2,4-triazole-3-carboxamide]: the Ki under setting [1] came to 5940 nM. Regarding `CN1C(=O)C(NC(=O)c2nnc(Cc3ccccc3)[nH]2)CCn2nc(C(F)(F)F)cc21` (stereo not drawn) [Example 30, 5-benzyl-N-[4-methyl-5-oxo-2-(trifluoromethyl)-7,8-dihydro-6H-pyrazolo[1,5-a][1,3]diazepin-6-yl]-4H-1,2,4-triazole-3-carboxamide], the Ki under setting [4] worked out at 208 nM. In the case of `CN1C(=O)[C@@H](NC(=O)c2ncn(Cc3ccccc3)n2)CCCn2nccc21` [Example 155, (S)-1-benzyl-N-(4-methyl-5-oxo-4,5,6,7,8,9-hexahydropyrazolo[1,5-a][1,3]diazocin-6-yl)-1H-1,2,4-triazole-3-carboxamide], under setting [2], the Ki came to 38.2 nM.

(Values after US10988459B2 (priority 2015, dated 2021).)
